Source: patent US20140348819A1, “Methods of Treating Cancer” (Dana-Farber Cancer Institute, Inc., priority 2011, published 2014)

Experiments:
[1] = test system: SK-MEL-28; test: Proliferation of SK-MEL-28 melanoma cells alone or co-cultured with stromal cell lines, PLX4720 with or without Crizotinib (Table 5); format: cell-based, human; conditions: DMSO (no Crizotinib)
Source text: (§1) The DLD-1 cells do harbor the BRAF activating mutation V600E but are not sensitive at all to BRAF inhibition. They actually grow faster under BRAFi.
(§2) Proliferation was quantified after 7 days and normalized to non-treated cells. Bars represent standard error between replicates (n=3).
(§3) The propensity of tumors to develop resistance to a wide range of chemotherapy drugs imposes a critical hurdle to the treatment of most types of cancers. […] An optimized high-throughput screening system was used to explore the prevalence and significance of stromal cell-mediated chemoresistance in solid tumors. Forty-six GFP-labeled human cancer cell lines (Table 1) were cultured on 384-well plates either alone or co-cultured with each one of 23 human stromal cell lines (Table 3). The effects of a diverse range of widely used chemotherapy drugs (Table 2) on the proliferation of the single- or co-cultured cancer cell lines were assessed through GFP readings and through fluorescence microscopy.

[2] = test system: SK-MEL-5; test: Proliferation of SK-MEL-5 melanoma cells alone or co-cultured with stromal cell lines, PLX4720 with or without Crizotinib (Table 5); format: cell-based, human; conditions: DMSO (no Crizotinib)
Source text: as §1, §2, §3

[3] = test system: WiDr; test: Sensitivity of colorectal cancer cell line to PLX4720 with or without stromal cells (FIG. 2B); format: cell-based, human; conditions: colorectal cancer cell lines represented by WiDr
Source text: The propensity of tumors to develop resistance to a wide range of chemotherapy drugs imposes a critical hurdle to the treatment of most types of cancers. While the role of the cellular microenvironment in tumor progression and metastasis has been increasingly studied in recent years, its effects on drug resistance are still underappreciated and poorly understood. An optimized high-throughput screening system was used to explore the prevalence and significance of stromal cell-mediated chemoresistance in solid tumors. Forty-six GFP-labeled human cancer cell lines (Table 1) were cultured on 384-well plates either alone or co-cultured with each one of 23 human stromal cell lines (Table 3). The effects of a diverse range of widely used chemotherapy drugs (Table 2) on the proliferation of the single- or co-cultured cancer cell lines were assessed through GFP readings and through fluorescence microscopy. Stroma-mediated primary chemoresistance was clearly detected across most cancer cell lines and chemotherapy drugs (FIGS. 1A and 1B, Tables 3 and 4). In most cases, only a small subset of the stromal cells could render a specific cancer-cell line more resistant to a specific drug, and this subset was usually the same across cancer cell lines from the same origin (FIGS. 1-4). […]

[4] = test system: G361; test: Proliferation of G361 melanoma cells alone or co-cultured with stromal cell lines, PLX4720 with or without Crizotinib (Table 5); format: cell-based, human; conditions: for normalized proliferation: G361, PLX4720 - 2 uM, DMSO (no Crizotinib)
Source text: as §1, §2, §3

[5] = test system: V600E B-RAF melanoma cell lines; conditions: pre-clinical trials; cited from earlier work

SMILES: CCCS(=O)(=O)Nc1ccc(F)c(C(=O)c2c[nH]c3ncc(Cl)cc23)c1F [PLX4720]
- normalized proliferation ([1]; 1069sk, PLX4720 - 2 uM): 0.1
- normalized proliferation ([1]; HS-5, PLX4720 - 2 uM): 0.1
- normalized proliferation ([1]; LL86, PLX4720 - 2 uM): 0.3
- normalized proliferation ([1]; No Fibro, PLX4720 - 2 uM): 0.1
- normalized proliferation ([1]; Wi-38, PLX4720 - 2 uM): 0.4
- normalized proliferation ([2]; 1069sk, PLX4720 - 2 uM): 0.4
- normalized proliferation ([2]; HS-5, PLX4720 - 2 uM): 0.5
- normalized proliferation ([2]; LL86, PLX4720 - 2 uM): 0.8
- normalized proliferation ([2]; No Fibro, PLX4720 - 2 uM): 0.3
- normalized proliferation ([2]; Wi-38, PLX4720 - 2 uM): 0.6
- sensitivity to BRAFi [3]: largely not sensitive
- normalized proliferation ([4]; 1069sk): 0.1
- normalized proliferation ([4]; HS-5): 0.2
- normalized proliferation ([4]; LL86): 0.5
- normalized proliferation ([4]; No Fibro): 0.1
- normalized proliferation ([4]; Wi-38): 0.4
- sensitivity to the BRAF inhibitor PLX4720 ([4]; melanoma cell lines represented by G-361, FIG. 2B): sensitive
- sensitivity of V600E B-RAF melanoma cell lines [5]: extremely sensitive
